Experimental data taken from ChEMBL document CHEMBL3351509, “Identification of 3,6-disubstituted dihydropyrones as inhibitors of human lactate dehydrogenase” (Bioorg Med Chem Lett, 2014).
Converted amounts (≈) assume the structure as drawn. Values belong to the compound of their own block, whether it stands above or below them.

Columns and labels:
[1] = Dissociation constant, pKa of the compound; type: physicochemical
[2] = Permeability from apical to basolateral side in MDCK cells; type: ADME, cell-based, Canis lupus familiaris; details: dog
[3] = Permeability from basolateral to apical side in MDCK cells; type: ADME, cell-based, Canis lupus familiaris; details: dog
[4] = target: L-lactate dehydrogenase A chain (Homo sapiens, UniProt P00338); assay: Inhibition of human LDH-A by biochemical assay
[5] = Unbound fraction in human plasma; type: ADME, cell-free
[6] = Unbound fraction in rat plasma; type: ADME, cell-free
[7] = Hepatic clearance in rat liver microsomes; type: ADME
MCF7 [8] = assay: Inhibition of lactate production in human MCF7 cells in absence of serum; type: functional, cell-based
MCF7 [9] = assay: Inhibition of lactate production in human MCF7 cells under standard serum conditions; type: functional, cell-based
MCF7 [10] = assay: Toxicity in human MCF7 cells assessed as effect on cell viability; type: cell-based
[11] = Hepatic clearance in human liver microsomes; type: ADME
[12] = Kinetic solubility in pH 7.4 buffered aqueous solution; type: physicochemical; details: read-out: Kinetic_solubility

pKa [1]: 3
Papp A→B [2]: 12 ×10⁻⁶ cm/s
Papp B→A [3]: 18 ×10⁻⁶ cm/s
IC50 [4]: 4 µM
SMILES: O=C1CC(c2ccccc2)CC(O)=C1Sc1ccccc1Cl (stereo not drawn)

pKa [1]: 2.4
fraction unbound [5]: 0.008
Papp A→B [2]: 3 ×10⁻⁶ cm/s
Papp B→A [3]: 5 ×10⁻⁶ cm/s
fraction unbound [6]: 0.008
IC50 [4]: 4 µM
SMILES: O=C1OC(c2ccccc2)CC(O)=C1Sc1ccccc1Cl (stereo not drawn)

pKa [1]: 3.7
fraction unbound [5]: 0.011
Papp A→B [2]: 11 ×10⁻⁶ cm/s
Papp B→A [3]: 16 ×10⁻⁶ cm/s
fraction unbound [6]: 0.012
IC50 [4]: 26 µM
SMILES: O=C1CC(c2ccccc2)CC(O)=C1Oc1ccccc1Cl (stereo not drawn)

pKa [1]: 4.6
Papp A→B [2]: 4 ×10⁻⁶ cm/s
Papp B→A [3]: 10 ×10⁻⁶ cm/s
IC50 [4]: 25 µM
SMILES: O=C1CC(c2ccccc2)CC(O)=C1Nc1ccccc1Cl (stereo not drawn)

pKa [1]: 6
Papp A→B [2]: 19 ×10⁻⁶ cm/s
Papp B→A [3]: 30 ×10⁻⁶ cm/s
IC50 [4]: 66 µM
SMILES: O=C1NC(c2ccccc2)CC(O)=C1Nc1ccccc1Cl (stereo not drawn)

IC50 [4]: 16 µM
SMILES: O=C1OC(c2ccc(Cl)cc2)CC(O)=C1Sc1ccccc1Cl (stereo not drawn)

IC50 [4]: 5 µM
SMILES: O=C1OC(c2c(Cl)cccc2Cl)CC(O)=C1Sc1ccccc1Cl (stereo not drawn)

IC50 [4]: > 100 µM
SMILES: N#Cc1ccccc1C1CC(O)=C(Sc2ccccc2Cl)C(=O)O1 (stereo not drawn)

IC50 [4]: 9.5 µM
SMILES: N#Cc1cccc(C2CC(O)=C(Sc3ccccc3Cl)C(=O)O2)c1 (stereo not drawn)

IC50 [4]: 2.2 µM
SMILES: CCOc1cccc(C2CC(O)=C(Sc3ccccc3Cl)C(=O)O2)c1 (stereo not drawn)

IC50 [4]: > 100 µM
SMILES: CC(C)C1CC(O)=C(Sc2ccccc2Cl)C(=O)O1 (stereo not drawn)

IC50 [4]: > 100 µM
SMILES: O=C1OC(C2CCOCC2)CC(O)=C1Sc1ccccc1Cl (stereo not drawn)

IC50 [4]: 35 µM
SMILES: Cn1ccc(C2CC(O)=C(Sc3ccccc3Cl)C(=O)O2)n1 (stereo not drawn)

IC50 [4]: 73 µM
SMILES: O=C1OC(c2cncnc2)CC(O)=C1Sc1ccccc1Cl (stereo not drawn)

IC50 [4]: 15 µM
SMILES: O=C1OC(c2cccnc2)CC(O)=C1Sc1ccccc1Cl (stereo not drawn)

IC50 [4]: 5.6 µM
SMILES: O=C1OC(CO)(c2ccccc2)CC(O)=C1Sc1ccccc1Cl (stereo not drawn)

IC50 [4]: 3.3 µM
SMILES: O=C1OC2(CCOc3ccccc32)CC(O)=C1Sc1ccccc1Cl (single isomer, unassigned; enantiomer A)

IC50 [4]: 0.35 µM
SMILES: O=C1OC2(CCc3c(Br)cccc32)CC(O)=C1Sc1ccccc1Cl (single isomer, unassigned; enantiomer A)

CLhep predicted [7]: 41 mL/min/kg
EC50 (MCF7 [8]): 32 µM
EC50 (MCF7 [9]): > 50 µM
fraction unbound [5]: < 0.01
CLhep predicted [11]: 20 mL/min/kg
Papp A→B [2]: 1.6 ×10⁻⁶ cm/s
fraction unbound [6]: < 0.01
IC50 [4]: 0.03 µM
solubility kinetic [12]: 169 µM (≈ 73.5 µg/mL)
SMILES: O=C1OC2(CCc3c(-c4ccccc4)cccc32)CC(O)=C1Sc1ccccc1Cl (single isomer, unassigned; enantiomer A)
Activity (MCF7 [10]): Non-toxic

IC50 [4]: 2.6 µM
SMILES: O=C1OC2(CCc3ccccc32)CC(O)=C1Sc1ccccc1Cl (single isomer, unassigned; enantiomer B)

IC50 [4]: 0.61 µM
SMILES: O=C1OC2(CCc3c(-c4ccccc4)cccc32)CC(O)=C1Sc1ccccc1Cl (single isomer, unassigned; enantiomer b)

More lines, now with the values behind:

SMILES: O=C1OC(C(=O)O)(c2ccccc2)CC(O)=C1Sc1ccccc1Cl (stereo not drawn)
IC50 [4]: 46 µM

SMILES: O=C1NC(c2ccccc2)CC(O)=C1Sc1ccccc1Cl (stereo not drawn)
pKa [1]: 4.1
fraction unbound [5]: 0.003
Papp A→B [2]: 7 ×10⁻⁶ cm/s
Papp B→A [3]: 9 ×10⁻⁶ cm/s
fraction unbound [6]: 0.006

SMILES: O=C1OC(c2ccccc2)CC(O)=C1Oc1ccccc1Cl (stereo not drawn)
pKa [1]: 3.4
fraction unbound [5]: 0.006
Papp A→B [2]: 4 ×10⁻⁶ cm/s
Papp B→A [3]: 6 ×10⁻⁶ cm/s
fraction unbound [6]: 0.013
IC50 [4]: 11 µM

SMILES: O=C1NC(c2ccccc2)CC(O)=C1Oc1ccccc1Cl (stereo not drawn)
pKa [1]: 5.3
fraction unbound [5]: 0.022
Papp A→B [2]: 11 ×10⁻⁶ cm/s
Papp B→A [3]: 12 ×10⁻⁶ cm/s
fraction unbound [6]: 0.023
IC50 [4]: 11 µM

SMILES: O=C1OC(c2ccccc2)CC(O)=C1Nc1ccccc1Cl (stereo not drawn)
pKa [1]: 4.2
Papp A→B [2]: 8 ×10⁻⁶ cm/s
Papp B→A [3]: 10 ×10⁻⁶ cm/s
IC50 [4]: 13 µM

SMILES: O=C1OC(c2ccccc2Cl)CC(O)=C1Sc1ccccc1Cl (stereo not drawn)
IC50 [4]: 5.5 µM

SMILES: O=C1OC(c2cccc(Cl)c2)CC(O)=C1Sc1ccccc1Cl (stereo not drawn)
IC50 [4]: 3.9 µM

SMILES: Cc1cccc(C)c1C1CC(O)=C(Sc2ccccc2Cl)C(=O)O1 (stereo not drawn)
IC50 [4]: 17 µM

SMILES: CCOc1ccccc1C1CC(O)=C(Sc2ccccc2Cl)C(=O)O1 (stereo not drawn)
IC50 [4]: 3.8 µM

SMILES: O=C1OC(c2ccccn2)CC(O)=C1Sc1ccccc1Cl (stereo not drawn)
IC50 [4]: 3.5 µM

SMILES: O=C1OC(c2ccncc2)CC(O)=C1Sc1ccccc1Cl (stereo not drawn)
IC50 [4]: 43 µM

SMILES: CC1(c2ccccc2)CC(O)=C(Sc2ccccc2Cl)C(=O)O1 (stereo not drawn)
IC50 [4]: 4.1 µM

SMILES: O=C1OC(c2ccccc2)(C2CC2)CC(O)=C1Sc1ccccc1Cl (stereo not drawn)
IC50 [4]: 13 µM

SMILES: NC(=O)C1(c2ccccc2)CC(O)=C(Sc2ccccc2Cl)C(=O)O1 (stereo not drawn)
IC50 [4]: 6.6 µM

SMILES: CNC(=O)C1(c2ccccc2)CC(O)=C(Sc2ccccc2Cl)C(=O)O1 (stereo not drawn)
IC50 [4]: 7.4 µM

SMILES: CN(C)C(=O)C1(c2ccccc2)CC(O)=C(Sc2ccccc2Cl)C(=O)O1 (stereo not drawn)
IC50 [4]: 22 µM

SMILES: CNC(=O)CC1(c2ccccc2)CC(O)=C(Sc2ccccc2Cl)C(=O)O1 (stereo not drawn)
IC50 [4]: 59 µM

SMILES: O=C1OC2(CCc3c(Br)cccc32)CC(O)=C1Sc1ccccc1Cl (single isomer, unassigned)
IC50 [4]: 2.1 µM

SMILES: O=C1OC2(CCCc3ccccc32)CC(O)=C1Sc1ccccc1Cl (single isomer, unassigned; enantiomer A)
IC50 [4]: 2.1 µM

SMILES: O=C1OC2(CCc3ccccc32)CC(O)=C1Sc1ccccc1Cl (single isomer, unassigned; enantiomer A)
IC50 [4]: 0.36 µM

SMILES: O=C1OC2(CCOc3ccccc32)CC(O)=C1Sc1ccccc1Cl (single isomer, unassigned; enantiomer B)
IC50 [4]: 28 µM

SMILES: O=C1OC2(CCCc3ccccc32)CC(O)=C1Sc1ccccc1Cl (single isomer, unassigned; enantiomer B)
IC50 [4]: 22 µM
